Reference: patent US11337976B2 (Plexxikon Inc., priority 2011, dated 2022)
Where two headings read alike, the source gives them in different places.

Legend:
[1] = tested on: A375 melanoma cells (B-Raf V600E mutation); experiment: A375 (A375_P-ERK) cell activity / cell growth inhibition assay; type: cell-based, human; settings: A375 cells (text: A375_P-ERK)
B-Raf V600E = B-Raf V600E (Homo sapiens (Human), UniProt P15056, V600E); experiment: B-Raf V600E kinase activity biochemical assay (AlphaScreen, biotin-MEK1 substrate); settings: 100 μM ATP
B-Raf V600E, sequence (P15056 whole entry V600E): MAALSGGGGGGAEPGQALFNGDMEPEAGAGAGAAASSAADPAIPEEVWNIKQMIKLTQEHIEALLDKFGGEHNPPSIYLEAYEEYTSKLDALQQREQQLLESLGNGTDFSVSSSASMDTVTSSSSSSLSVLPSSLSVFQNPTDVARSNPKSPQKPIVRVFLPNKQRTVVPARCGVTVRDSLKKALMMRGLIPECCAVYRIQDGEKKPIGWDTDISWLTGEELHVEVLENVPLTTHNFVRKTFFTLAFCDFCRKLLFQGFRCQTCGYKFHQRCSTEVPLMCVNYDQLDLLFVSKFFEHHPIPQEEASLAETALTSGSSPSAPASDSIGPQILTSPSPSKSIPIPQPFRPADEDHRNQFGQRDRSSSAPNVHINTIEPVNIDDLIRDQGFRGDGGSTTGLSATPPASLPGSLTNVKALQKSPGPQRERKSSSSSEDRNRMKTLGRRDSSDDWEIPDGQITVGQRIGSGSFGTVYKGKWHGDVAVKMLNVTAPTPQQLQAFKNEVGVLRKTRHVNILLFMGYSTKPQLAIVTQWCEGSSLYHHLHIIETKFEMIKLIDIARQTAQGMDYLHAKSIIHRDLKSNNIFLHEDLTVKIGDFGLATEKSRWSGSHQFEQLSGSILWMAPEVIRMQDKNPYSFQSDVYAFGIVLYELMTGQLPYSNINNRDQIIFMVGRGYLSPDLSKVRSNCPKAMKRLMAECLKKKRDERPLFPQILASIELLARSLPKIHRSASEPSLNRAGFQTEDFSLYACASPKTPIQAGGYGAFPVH
Description: Assays for biochemical and cell based activity are known in the art, for example, as described in PCT publication WO 2007/002433, the disclosure of which is hereby incorporated by reference as it relates to such assays. For example, the biochemical activity IC50 values are determined with respect to inhibition of B-Raf V600E kinase activity or p-Erk kinase activity, where inhibition of phosphorylation of a peptide substrate is measured as a function of compound concentration. Compounds to be tested are diluted in dimethyl sulfoxide to a concentration of 0.1 mM. These are serially diluted 15 μL into 30 μL of dimethyl sulfoxide seven times in 96 well plates for a total of 8 dilution points, and for each dilution point 1 μL is added to a well of an assay plate. Plates are prepared such that each well in a 384 well plate contains 1 μL of compound in 10 μL volume with 0.1 ng Raf enzyme (i.e. any of B-Raf, c-Raf-1 or B-Raf V600E, Upstate Biotechnology or preparead by methods known to one of skill in the art), 50 mM HEPES, pH 7.0, 50 mM NaCl, 2 mM MgCl2, 1 mM MnCl2, 0.01% Tween-20, 1 mM DTT, and 100 nM biotin-MEK1 as substrate. The reaction is started with addition of 10 μL of 200 μM ATP (i.e. final 100 μM ATP). […] The plates are incubated for 3 hours at room temperature and read on Envision reader (Perkin Elmer). […]

[2] = tested on: COLO205 colon adenocarcinoma cells (B-Raf V600E mutation); experiment: COLO205 cell growth inhibition assay (ATPlite); type: cell-based, human
Description: Compounds are assessed in a variety of cell based assays. For example human cell lines with B-RafV600E mutation (A375 melanoma, SKMEL3 melanoma, and COLO205 colon adenocarcinoma), as well as tumorigenic cell lines with wild-type B-RAF (SW620 colon adenocarcinoma) or with Ras mutations (SKMEL2 melanoma and IPC298 melanoma).
On day 1, cells are counted, then centrifuged in a conical tube for 5 minutes at 1000 rpm.
On day 2, compound at a maximum concentration of 5 mM is serially diluted 1:3 (e.g. 10 μL with 30 μL dimethyl sulfoxide) for a total of 8 point titration with DMSO as a control. A 1 μL aliquot of each dilution point and control is added to 249 μL growth media and 50 μL is added to a well containing cells, providing 10 μM compound at the maximum concentration point. The cells are incubated for 3 days at 37° C. in 5% CO2.
ATPlite is added 25 μL to each well, shake for 2 minutes, and the cells are incubated at room temperature for 10 minutes, then luminescence is read on Safire reader. The measured luminescence correlates directly with cell number, such that the reading as a function of compound concentration is used to determine the IC50 value.

[3] = tested on: IPC-298 cells, phosphorylated ERK; experiment: IPC-298_P-ERK cell activation assay (phosphorylated ERK, AlphaScreen); type: cell-based, human; settings: P-ERK activation, one hour treatment
Description: B9 is a squamous cell carcinoma cell line expressing activated HRAS that was isolated from a DMBA/TPA-induced mouse model of skin carcinogenesis (Stoler, et al. The Journal of Cell Biology, 1993, 122(5), 1103-17). IPC-298 is a human melanoma cell line that expresses activated NRAS (Aubert, et al. International Journal of Cancer, 1993, 54(5), 784-92). To determine whether compounds induce phosphorylated ERK and MEK, cells are plated in a 96-well dish and treated with an 8-point titration of compound for one hour at 37° C. The media is then removed and the cells are incubated with lysis buffer containing protease and phosphatase inhibitors. Phosphorylated ERK and MEK in the resulting lysates is detected using AlphaScreen™ technology. To detect phosphorylated ERK, cell lysates are incubated with streptavidin-coated donor beads, anti-mouse IgG acceptor beads, a biotinylated anti-ERK1/2 rabbit antibody, and a mouse antibody that recognizes ERK1/2 only when it is phosphorylated on Thr202 and Tyr204. […] When ERK is phosphorylated, both antibodies can bind the same protein, bringing the donor and acceptor beads into close proximity, producing a signal that can be measured at 580 nm. MEK phosphorylation is detected using a similar approach, only with antibodies directed against total MEK1/2 and MEK1/2 that is phosphorylated at Ser217 and Ser221.

[4] = Homo sapiens, A-375, compounds known in the art
[5] = Homo sapiens, COLO 205, compounds known in the art

SMILES	IC50 ([1]; Homo sapiens, A-375) [µM]	further results
CCN(C)S(=O)(=O)Nc1ccc(F)c(C(=O)c2c[nH]c3ncc(-c4ccc(Cl)cc4)cc23)c1F [P-0013]	< 1	IC50 (B-Raf V600E): < 0.1 µM
CCCS(=O)(=O)Nc1ccc(F)c(C(=O)c2c[nH]c3ncc(Cl)cc23)c1F		IC50 [1, 4]: < 0.8 µM; IC50 [2, 5]: < 1 µM
COc1ncc(-c2cnc3[nH]cc(C(=O)c4c(F)ccc(NS(=O)(=O)c5cc(F)ccc5F)c4F)c3c2)cn1		IC50 [1, 4]: < 0.5 µM; IC50 [2, 5]: < 1 µM
O=C(c1c(F)ccc(NS(=O)(=O)N2CCCC2)c1F)c1c[nH]c2ncc(I)cc12 [P-0024]		IC50 [1]: < 1 µM; EC50 [3]: > 10 µM; IC50 [2]: > 1 µM
CN(C)S(=O)(=O)Nc1cccc(C(=O)c2c[nH]c3ncc(-c4ccc(C#N)cc4)cc23)c1F [P-0027]	< 1	IC50 ([2]; Homo sapiens, COLO 205): < 1 µM
COc1ncc(-c2cnc3[nH]cc(C(=O)c4c(F)ccc(NS(=O)(=O)c5ccccc5F)c4F)c3c2)cn1		IC50 [1, 4]: < 0.5 µM; IC50 [2, 5]: < 1 µM
COc1ncc(-c2cnc3[nH]cc(C(=O)c4cccc(NS(=O)(=O)N5CCCC5C)c4F)c3c2)cn1 (stereo not drawn) [P-0074, N-[2-fluoro-3-[5-(2-methoxypyrimidin-5-yl)-1H-pyrrolo[2,3-b]pyridine-3-carbonyl]phenyl]-2-methyl-pyrrolidine-1-sulfonamide]	< 1	
CCC(C)S(=O)(=O)Nc1cccc(C(=O)c2c[nH]c3ncc(-c4cnc(C(C)C)nc4)cc23)c1F (stereo not drawn) [P-0229, N-[2-fluoro-3-[5-(2-isopropylpyrimidin-5-yl)-1H-pyrrolo[2,3-b]pyridine-3-carbonyl]phenyl]butane-2-sulfonamide]	< 1	
O=C(c1cccc(NS(=O)(=O)N2CCCC2)c1F)c1c[nH]c2ncc(-c3ccncc3)cc12 [P-0281, N-[2-fluoro-3-[5-(4-pyridyl)-1H-pyrrolo[2,3-b]pyridine-3-carbonyl]phenyl]pyrrolidine-1-sulfonamide]	< 1	
N#CC1(c2ccc(-c3cnc4[nH]cc(C(=O)c5c(F)ccc(NS(=O)(=O)N6CCCC6)c5F)c4c3)cc2)CC1 [P-0248, N-[3-[5-[4-(1-cyanocyclopropyl)phenyl]-1H-pyrrolo[2,3-b]pyridine-3-carbonyl]-2,4-difluoro-phenyl]pyrrolidine-1-sulfonamide]	< 1	
C[C@@H]1CCN(S(=O)(=O)Nc2cccc(C(=O)c3c[nH]c4ncc(-c5cnc(C6CC6)nc5)cc34)c2F)C1 [P-0271, (3R)—N-[3-[5-(2-cyclopropylpyrimidin-5-yl)-1H-pyrrolo[2,3-b]pyridine-3-carbonyl]-2-fluoro-phenyl]-3-methyl-pyrrolidine-1-sulfonamide]	< 1	
CN(C1CC1)S(=O)(=O)Nc1cccc(C(=O)c2c[nH]c3ncc(-c4cnc(C5CC5)nc4)cc23)c1F [P-0249, 3-[3-[[cyclopropyl(methyl)sulfamoyl]amino]-2-fluoro-benzoyl]-5-(2-cyclopropylpyrimidin-5-yl)-1H-pyrrolo[2,3-b]pyridine]	< 1	
Cc1ncc(-c2cnc3[nH]cc(C(=O)c4cccc(NS(=O)(=O)N(C)C)c4F)c3c2)cn1 [P-0097, 3-[3-(dimethylsulfamoylamino)-2-fluoro-benzoyl]-5-(2-methylpyrimidin-5-yl)-1H-pyrrolo[2,3-b]pyridine]	< 1	
CCN(C)S(=O)(=O)Nc1ccc(F)c(C(=O)c2c[nH]c3ncc(-c4cccc(N5CCOCC5)c4)cc23)c1F [P-0259, 4-[3-[3-[3-[[ethyl(methyl)sulfamoyl]amino]-2,6-difluoro-benzoyl]-1H-pyrrolo[2,3-b]pyridin-5-yl]phenyl]morpholine]	< 1	
COCCN(C)S(=O)(=O)Nc1cccc(C(=O)c2c[nH]c3ncc(-c4cnc(C5CC5)nc4)cc23)c1F [P-0085, 5-(2-cyclopropylpyrimidin-5-yl)-3-[2-fluoro-3-[[2-methoxyethyl(methyl)sulfamoyl]amino]benzoyl]-1H-pyrrolo[2,3-b]pyridine]	< 1	
Nc1cc(-c2cnc3[nH]cc(C(=O)c4cccc(NS(=O)(=O)N5CCCC5)c4F)c3c2)ncn1 [P-0299, N-[3-[5-(6-aminopyrimidin-4-yl)-1H-pyrrolo[2,3-b]pyridine-3-carbonyl]-2-fluoro-phenyl]pyrrolidine-1-sulfonamide]	> 1	
CN(C)S(=O)(=O)Nc1cccc(C(=O)c2c[nH]c3ncc(-c4cncc(C#N)c4)cc23)c1F [P-0098, 5-(5-cyano-3-pyridyl)-3-[3-(dimethylsulfamoylamino)-2-fluoro-benzoyl]-1H-pyrrolo[2,3-b]pyridine]	< 1	
CN(C)S(=O)(=O)Nc1cccc(C(=O)c2c[nH]c3ncc(-c4ccc(C(F)(F)F)nc4)cc23)c1F [P-0053, 3-[3-(dimethylsulfamoylamino)-2-fluoro-benzoyl]-5-[6-(trifluoromethyl)-3-pyridyl]-1H-pyrrolo[2,3-b]pyridine]	< 1	
CCC(C)S(=O)(=O)Nc1cccc(C(=O)c2c[nH]c3ncc(-c4ccc(N(C)C)nc4)cc23)c1F (stereo not drawn) [P-0230, N-[3-[5-[6-(dimethylamino)-3-pyridyl]-1H-pyrrolo[2,3-b]pyridine-3-carbonyl]-2-fluoro-phenyl]butane-2-sulfonamide]	< 1	
CC(C)c1ncc(-c2cnc3[nH]cc(C(=O)c4cccc(NS(=O)(=O)N(C)C)c4F)c3c2)cn1 [P-0051, 3-[3-(dimethylsulfamoylamino)-2-fluoro-benzoyl]-5-(2-isopropylpyrimidin-5-yl)-1H-pyrrolo[2,3-b]pyridine]	< 1	
